Reference: patent EP4640223A1, “PHARMACEUTICAL COMPOSITION FOR PREVENTION OR TREATMENT OF CARDIOVASCULAR DISEASE, COMPRISING SODIUM-GLUCOSE COTRANSPORTER-2 INHIBITOR AND ANGIOTENSIN II RECEPTOR BLOCKER” (THPharm Corp., priority 2022, dated 2024)
Where two headings read alike, the source gives them in different places.

Key:
[1] = Drug-drug compatibility test under accelerated stability conditions; assay type: physicochemical; conditions: for flexible substance / content (ARB) / content (SGLT-2 inhibitor): HPLC; for content (ARB): first figure of the cell; for property: color, clumping, etc.; for content (SGLT-2 inhibitor): second figure of the cell
Method: Specifically, after storing a mixture of ARB and SGLT-2 inhibitor for 2 weeks under accelerated stability test conditions (40 ± 2°C/75 ± 5% relative humidity), changes in the contents of each ingredient and flexible substance and changes in properties (color, clumping, etc.) were analyzed. Olmesartan, Valsartan, and Telmisartan were used as ARBs, and Empagliflozin, Dapagliflozin (Dapagliflozin propanediol monohydrate), and Canagliflozin were used as SGLT-2 inhibitors.

[2] = system: angiotensin converting enzyme (ACE); experiment: ACE mRNA expression (RT-PCR, normalized to GAPDH) in LPS inflammation-induced H9c2 cells; assay type: cell-based, rat
Method: Specifically, LPS inflammation-induced H9c2 cells in Experimental Example 1-2 were treated with 10 or 25 µM Telmisartan and 10 or 50 µM Olmesartan, and then treated with 200 µl of chloroform together with 1 ml of TRIZol (Sigma, USA), gently mixed, and separated for 10 minutes, and then centrifuged at 4°C and 10,000 rpm for 10 minutes. After centrifugation, only the supernatant from the tube was taken and transferred to a new sterile tube, and the supernatant was treated with 500 µl of isopropanol to precipitate RNA. The precipitated RNA was centrifuged at 4°C, 10,000 rpm for 10 minutes, and then the supernatant except for the pellets in the tube was fully removed, and the RNA pellets were treated with 500 µl of 75% ethyl alcohol and thoroughly washed. The washed pellets were centrifuged at 4°C, 10,000 rpm for 5 minutes, and then the supernatant except the pellets was fully removed. The tube containing the pellets from which the supernatant had been cleanly removed was treated with diethyl pyrocarbonate (DEPC)-water and stored at - 80°C for use in an RT-PCR experiment.
RT-PCR was performed by synthesizing cDNA from mRNA using an RT-PCR kit containing DNA polymerase, buffer, dNTP, and tracking dye, and then using ACE primers in Table 1 under the conditions in Table 2 for 35 cycles. The PCR products were electrophoresed on a […] agarose gel, identified using a UV transilluminator, and expressed as normalized to GAPDH for quantitative comparison.
In order to confirm the effect of each combination or single substance on the mRNA expression of ACE, the experimental samples in Table 3 were treated to H9c2 cells induced with LPS inflammation in Experimental Example 1-2, respectively, and then the mRNA expression of ACE was evaluated in the same manner as in Experimental Example 1-3.

[3] = repeated oral, steady state
[4] = 4-week repeated oral administration toxicity; assay type: in vivo, Sprague-Dawley rats; conditions: daily for 4 weeks
Method: Specifically, groups were configured in the same manner as in Experimental Example 4-1, and the combinations were administered orally daily for 4 weeks to 5 male and 5 female 6-week-old Sprague-Dawley rats per group. During the test, general symptom observation, blood test, and body weight measurement were performed, and after the observation period ended, the rats were euthanized and autopsied.

A549 cells = experiment: Cell survival rate (MTT) in A549 cells; assay type: cell-based; conditions: after 24 hours and 48 hours, up to a concentration of 25 µM
Method: (§1) Specifically, A549 cells were obtained from the Korean Cell Line Bank (KCLB) and subcultured using a RPMI-1640 medium supplemented with 10% fetal bovine serum (FBS) and 1% Penicillin, and MDCK cells were obtained from ATCC and subcultured using a DMEM medium supplemented with 10% FBS. 200 µl each of the A549 cells and MDCK cells incubated in an incubator under 37°C and 5% CO2 conditions were dispensed at 2 × 10^4 cells/well in a 96-well plate, and then a control group was treated with 100 µl of the medium, and experimental groups were treated with 1.25, 25, 50, and 100 µM of Telmisartan or Olmesartan, respectively. After 24 hours and 48 hours, all of the wells were treated with 50 µl each of a 2 mg/ml MTT reagent and incubated in an incubator for 3 hours, and then each well was added with 500 µl of DMSO, wrapped in foil, stirred for 30 minutes at room temperature, and the absorbance was measured at 570 nm to obtain the cell survival rate.

MDCK cells = experiment: Cell survival rate (MTT) in MDCK cells; assay type: cell-based; conditions: after 24 hours and 48 hours, up to a concentration of 25 µM
Method: as §1

[5] = system: angiotensin converting enzyme (ACE); experiment: ACE protein expression (Human ACE ELISA) in LPS inflammation-induced H9c2 cells; assay type: cell-based, rat
Method: Specifically, H9c2 cells as a human cardiac cell line were obtained and used from the Korea Cell Line Bank (KCLB 40071, Korea) and incubated and prepared in a DMEM medium supplemented with 10% FBS and 1% antibiotic-antimycotic (10 units/ml penicillin, 100 µg/ml streptomycin, 0.25 µg/ml amphotericin) under 37°C and 5% CO2 conditions.
To confirm the effect on ACE activity, the prepared H9c2 cells were treated with 2.5 µg/ml of Lipopolysaccharide (LPS), which was 2.5 times more than the amount used in conventional inflammation-related experiments, to induce inflammation, thereby setting the optimized conditions for confirming ACE expression. […]
To perform the ELISA assay, 10,000 pg/ml, 5,000 pg/ml, 2,500 pg/ml, 1,250 pg/ml, 625 pg/ml, 312 pg/ml, and 156 pg/ml of Human ACE standard solutions and a standard dilution buffer were added by 0.1 ml to each well of an antibody-coated 96-well plate. […] Thereafter, each well was added with 90 µl of the prepared TMB solution, incubated for 20 to 25 minutes in a dark room at 37°C, and then treated with each 0.1 ml of the prepared TMB stop solution to stop an ACE ELISA reaction, and the OD absorbance at 450 nm was read in a microplate reader within 30 minutes, and the relative OD450 was derived using the following Equation. […]

[6] = Acceleration 1 week, 40 ± 2°C/75 ± 5% relative humidity
[7] = Acceleration 2 week, 40 ± 2°C/75 ± 5% relative humidity
[8] = experimental samples at the concentrations of Table 3
[9] = alone, low-concentration administration groups of 2.5 µM to 10 µM

SMILES: CCCc1nc2c(C)cc(-c3nc4ccccc4n3C)cc2n1Cc1ccc(-c2ccccc2C(=O)O)cc1 [Com. Ex. 16, Telmisartan]
- flexible substance [1, 6]: 0.1 or less
- content (ARB) [1, 6]: 100.1%
- property [1, 6]: suitable
- flexible substance [1, 7]: 0.1 or less
- content (ARB) [1, 7]: 100%
- property [1, 7]: suitable
- flexible substance ([1]; Initial): 0.1 or less
- content (ARB) ([1]; Initial): 100.1%
- property ([1]; Initial): suitable

SMILES: OC[C@H]1O[C@@H](c2ccc(Cl)c(Cc3ccc(O[C@H]4CCOC4)cc3)c2)[C@H](O)[C@@H](O)[C@@H]1O [Com. Ex. 17, Empagliflozin]
- flexible substance [1, 6]: 1.0 or less
- content (SGLT-2 inhibitor) [1, 6]: 97.3%
- property [1, 6]: suitable
- flexible substance [1, 7]: 1.0 or more
- content (SGLT-2 inhibitor) [1, 7]: 95.1%
- property [1, 7]: suitable
- flexible substance ([1]; Initial): 0.1 or less
- content (SGLT-2 inhibitor) ([1]; Initial): 99.9%
- property ([1]; Initial): suitable

SMILES: CCCCC(=O)N(Cc1ccc(-c2ccccc2-c2nnn[nH]2)cc1)[C@H](C(=O)O)C(C)C [Com. Ex. 20, Valsartan]
- flexible substance [1, 6]: 0.1 or more
- content (ARB) [1, 6]: 99.4%
- property [1, 6]: suitable
- flexible substance [1, 7]: 0.1 or more
- content (ARB) [1, 7]: 99.2%
- property [1, 7]: suitable
- flexible substance ([1]; Initial): 0.1 or less
- content (ARB) ([1]; Initial): 99.7%
- property ([1]; Initial): suitable

SMILES: Cc1ccc([C@@H]2O[C@H](CO)[C@@H](O)[C@H](O)[C@H]2O)cc1Cc1ccc(-c2ccc(F)cc2)s1 [Com. Ex. 21, Canagliflozin]
- flexible substance [1, 6]: 1.0 or less
- content (SGLT-2 inhibitor) [1, 6]: 95.2%
- property [1, 6]: unsuitable
- flexible substance [1, 7]: 5.0 or more
- content (SGLT-2 inhibitor) [1, 7]: 89.2%
- property [1, 7]: unsuitable
- flexible substance ([1]; Initial): 0.1 or less
- content (SGLT-2 inhibitor) ([1]; Initial): 99.5%
- property ([1]; Initial): suitable

SMILES: OC[C@H]1O[C@@H](c2ccc(Cl)c(Cc3ccc(O[C@H]4CCOC4)cc3)c2)[C@H](O)[C@@H](O)[C@@H]1O [Comparative Example 8, Empagliflozin]
- mRNA expression of ACE [2, 8]: decrease below the normal level

SMILES: CCCc1nc2c(C)cc(-c3nc4ccccc4n3C)cc2n1Cc1ccc(-c2ccccc2C(=O)O)cc1 [Comparative Example 14, Telmisartan]
- mRNA expression of ACE [2, 8]: decrease below the normal level

SMILES: CCOc1ccc(Cc2cc([C@@H]3O[C@H](CO)[C@@H](O)[C@H](O)[C@H]3O)ccc2Cl)cc1 [Dapagliflozin, (1S)-1,5-anhydro-1-C-{4-chloro-3-[(4-ethoxyphenyl)methyl]phenyl}-D-glucitol]
- Cmax T/R ratio ([3]; Dapagliflozin 10 mg in the presence of Telmisartan 80 mg, 90% confidence interval 0.93 to1.12): 1.02
- AUC T/R ratio ([3]; Dapagliflozin 10 mg in the presence of Telmisartan 80 mg, 90% confidence interval 0.97 to 1.03): 1.00
- GLU ([4]; blood test): decreased
- mRNA expression of ACE [2, 9]: did not decrease to a normal level

SMILES: OC[C@H]1O[C@@H](c2ccc(Cl)c(Cc3ccc(O[C@H]4CCOC4)cc3)c2)[C@H](O)[C@@H](O)[C@@H]1O [Empagliflozin, (1S)-1,5-anhydro-1-C-[4-chloro-3-[[4-[[(3S)-tetrahydro-3-furanyl]oxy]phenyl]methyl]phenyl]-D-glucitol]
- mRNA expression of ACE [2, 9]: did not decrease to a normal level

SMILES: CCCc1nc(C(C)(C)O)c(C(=O)O)n1Cc1ccc(-c2ccccc2-c2nnn[nH]2)cc1 [Olmesartan]
- cell survival rate (A549 cells): no effect
- cell survival rate (MDCK cells): no effect

SMILES: CCCc1nc2c(C)cc(-c3nc4ccccc4n3C)cc2n1Cc1ccc(-c2ccccc2C(=O)O)cc1 [Telmisartan, 4'-[(1,4'-dimethyl-2'-propyl[2,6'-bi-1H-benzimidazol]-1'-yl)methyl][1,1'-biphenyl]-2-carboxylic acid]
- Cmax T/R ratio ([3]; Telmisartan 80 mg in the presence of Dapagliflozin 10 mg, 90% confidence interval 0.99 to 1.43): 1.19
- AUC T/R ratio ([3]; Telmisartan 80 mg in the presence of Dapagliflozin 10 mg, 90% confidence interval 1.01 to 1.18): 1.09
- body weight measurement [4]: tendency for inhibiting weight gain
- cell survival rate (A549 cells): no effect
- cell survival rate (MDCK cells): no effect
- mRNA expression ([2]; ACE mRNA, 25 µM treatment group): mostly inhibited
- mRNA expression inhibition effect ([2]; ACE mRNA, all treatment concentrations (Telmisartan 10 or 25 µM, Olmesartan 10 or 50 µM)): superior to that of Olmesartan
- mRNA expression of ACE [2, 9]: did not decrease to a normal level
- ACE expression inhibition effect ([5]; 25 µM treatment group): the best
- ACE expression inhibition effect ([5]; all treatment concentrations (10, 25, 50 µM), comparison with Olmesartan): superior to that of Olmesartan
